Assay results taken from patent US5532366A, “Heterocyclic amides” (Zeneca Limited, priority 1992, dated 1996).

Biological target: T1, human leukocyte elastase (HLE) (Homo sapiens, UniProt P08246)
T1 sequence (P08246 30-267): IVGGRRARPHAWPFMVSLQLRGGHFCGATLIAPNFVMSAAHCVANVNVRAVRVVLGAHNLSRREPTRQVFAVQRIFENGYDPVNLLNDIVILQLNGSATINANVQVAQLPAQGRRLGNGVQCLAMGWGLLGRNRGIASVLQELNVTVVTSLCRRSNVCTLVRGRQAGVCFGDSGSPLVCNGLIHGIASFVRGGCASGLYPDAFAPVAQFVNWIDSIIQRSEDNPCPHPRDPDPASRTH
Test: Inhibition of human leukocyte elastase (HLE) on methoxy-succinyl-alanyl-alanyl-prolyl-valine-p-nitroanilide, Ki (Inhibition Measurements)
Assay type: biochemical
Settings: kinetic determination of dissociation constant; substrate methoxy-succinyl-alanyl-alanyl-prolyl-valine-p-nitroanilide
Procedure: The potency of a Compound to act as an inhibitor of human leukocyte elastase (HLE) on the low molecular weight peptide substrate methoxy-succinyl-alanyl-alanyl-prolyl-valine-p-nitroanilide is determined as described in U.S. Pat. No. 4,910,190. The potency of an inhibitor is evaluated by obtaining a kinetic determination of the dissociation constant, Ki, of the complex formed from the interaction of the inhibitor with HLE. If a Compound is found to be a "slow-binding" inhibitor of HLE, special methods of analysis to accurately determine Ki values for the inhibition of HLE are carried out as described in U.S. Pat. No. 4,910,190.

Ki: 44 nM
Compound: CC(C)C(NC(=O)Cn1ccc2c(=O)n(CC(=O)OCc3ccccc3)c(=O)[nH]c2c1=O)C(=O)C(F)(F)F (stereo not shown) [Example 13]
